Holding throughout (assay type): cell-based
For assay [1], the system named is Mannheimia haemolytica MH 6357 (M7/2, reference strain, cattle infection strain). In words: MIC, broth-microdilution (CLSI VET01-A4), strain MH 6357. The note with it: Mannheimia haemolytica strain MH 6357, broth-microdilution; unit assumed. The method, boiled down:
(§1)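 MIC is the lowest compound concentration showing no visible growth by eye, read from doubling-dilution microdilution trays. Method followed CLSI VET01-A4, with interpretation under CLSI VET01-S3.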
In general terms: Broth dilution looks for growth in wells or tubes with falling amounts of substance.

For assay [2], the system named is Mannheimia haemolytica MH 6374 (ATCC 33396, reference strain). In words: MIC, broth-microdilution (CLSI VET01-A4), strain MH 6374. The conditions noted are these: Mannheimia haemolytica strain MH 6374, broth-microdilution; unit assumed. Summed up:
as §1

Assay [3] has as its system Mannheimia haemolytica MH 10720 (154, BRD field isolate). Briefly: MIC, broth-microdilution (CLSI VET01-A4), strain MH 10720. The conditions noted are these: Mannheimia haemolytica strain MH 10720, broth-microdilution; unit assumed. The method, boiled down: as §1
For assay [4], the system named is Mannheimia haemolytica MH 12587 (1071, BRD field isolate, macrolide-resistance: erm+, E+). In words: MIC, broth-microdilution (CLSI VET01-A4), strain MH 12587. The conditions noted are these: Mannheimia haemolytica strain MH 12587, broth-microdilution; unit assumed. Summed up: as §1
Assay [5] deals with Mannheimia haemolytica MH 13065 (XB0446-6003.9, BRD field isolate). In words: MIC, broth-microdilution (CLSI VET01-A4), strain MH 13065. The conditions noted are these: Mannheimia haemolytica strain MH 13065, broth-microdilution; unit assumed. The method, boiled down: as §1
The subject of assay [6] is Mannheimia haemolytica MH 13093 (XB0472-6014.1, BRD field isolate). Briefly: MIC, broth-microdilution (CLSI VET01-A4), strain MH 13093. The conditions noted are these: Mannheimia haemolytica strain MH 13093, broth-microdilution; unit assumed. The method, boiled down: as §1
Assay [7] concerns Pasteurella multocida PM 6267 (P 2225 (L386), reference strain, mouse infection strain). In words: MIC, broth-microdilution (CLSI VET01-A4), strain PM 6267. The conditions noted are these: Pasteurella multocida strain PM 6267, broth-microdilution; unit assumed. Summed up: as §1
The test system of assay [8] is Pasteurella multocida PM 6391 (ATCC 43137, reference strain). In words: MIC, broth-microdilution (CLSI VET01-A4), strain PM 6391. The note with it: Pasteurella multocida strain PM 6391, broth-microdilution; unit assumed. The method, boiled down: as §1
For assay [9], the system named is Pasteurella multocida PM 10775 (080130003051, BRD field isolate). In words: MIC, broth-microdilution (CLSI VET01-A4), strain PM 10775. The note with it: Pasteurella multocida strain PM 10775, broth-microdilution; unit assumed. Summed up:
as §1

Assay [10] deals with Pasteurella multocida PM 12080 (IV102277-0093, BRD field isolate). In words: MIC, broth-microdilution (CLSI VET01-A4), strain PM 12080. The note with it: Pasteurella multocida strain PM 12080, broth-microdilution; unit assumed. The method, boiled down: as §1

≈ marks a conversion by molar mass, not a printed value. Where only a bound is given, the exact number is not on record here.

`CC(C)(O)[C@H](NC(=O)c1ccc(C#Cc2ccc(CNC3CCC3)cc2)cc1)C(=O)NO` [Compound 226]: the MIC MH 6357 in [1] is 3.1 µg/mL (≈ 7.12 µM). The compound also displayed an MIC MH 6374 in [2] of 3.1 µg/mL (≈ 7.12 µM). In assay [3], this compound returned an MIC MH 10720 of 0.8 µg/mL (≈ 1.84 µM). For the same compound, in assay [4], the MIC MH 12587 was determined as 12.5 µg/mL (≈ 28.7 µM). In assay [5], this compound gave an MIC MH 13065 of 3.1 µg/mL (≈ 7.12 µM). Moreover, the MIC MH 13093 in assay [6] was 6.3 µg/mL (≈ 14.5 µM). Also, the MIC PM 6267 in assay [7] was not above 0.1 µg/mL. The same compound registered an MIC PM 6391 in [8] of 0.4 µg/mL (≈ 0.918 µM). For the same compound, in assay [9], the MIC PM 10775 was not above 0.1 µg/mL. For the same compound, the MIC PM 12080 in [10] came to 0.4 µg/mL (≈ 0.918 µM).

Take `CC(C)(O)[C@H](NC(=O)c1ccc(C#Cc2ccc(CNC3CCCC3)cc2)cc1)C(=O)NO` [Compound 227]: the MIC MH 6357 in assay [1] came out at 12.5 µg/mL (≈ 27.8 µM). Moreover, the MIC MH 6374 in assay [2] is 12.5 µg/mL (≈ 27.8 µM). The MIC MH 10720 in assay [3] amounted to 1.6 µg/mL (≈ 3.56 µM). In assay [4], the MIC MH 12587 was determined as 25 µg/mL (≈ 55.6 µM). Also, in assay [5], the MIC MH 13065 came to 6.3 µg/mL (≈ 14 µM). Besides, the MIC MH 13093 in [6] turned out to be 12.5 µg/mL (≈ 27.8 µM). Further, the MIC PM 6267 in [7] stood at 0.4 µg/mL (≈ 0.89 µM). The compound further displayed an MIC PM 6391 in assay [8] of 0.8 µg/mL (≈ 1.78 µM). The compound further displayed an MIC PM 10775 in assay [9] of 0.2 µg/mL (≈ 0.445 µM). For the same compound, the MIC PM 12080 in assay [10] amounted to 0.8 µg/mL (≈ 1.78 µM).

As to `CC(C)(O)[C@H](NC(=O)c1ccc(C#Cc2ccc(CNCc3cccnc3)cc2)cc1)C(=O)NO` [Compound 228], the MIC MH 6357 in assay [1] came out at 0.8 µg/mL (≈ 1.69 µM). This compound registered an MIC MH 6374 in assay [2] of 0.4 µg/mL (≈ 0.846 µM). Moreover, in assay [3], the MIC MH 10720 was not above 0.1 µg/mL. Also, the MIC MH 12587 in assay [4] amounted to 1.6 µg/mL (≈ 3.39 µM). In assay [5], this compound had an MIC MH 13065 of 0.4 µg/mL (≈ 0.846 µM). In [6], this compound had an MIC MH 13093 of 0.8 µg/mL (≈ 1.69 µM). The compound further displayed an MIC PM 6267 in assay [7] not above 0.1 µg/mL. The compound also had an MIC PM 6391 in [8] not above 0.1 µg/mL. The same compound gave an MIC PM 10775 in [9] not above 0.1 µg/mL. The compound further returned an MIC PM 12080 in assay [10] not above 0.1 µg/mL.

Turning to `CC(C)(O)[C@H](NC(=O)c1ccc(C#Cc2ccc(CNCc3ccnc(Cl)c3)cc2)cc1)C(=O)NO` [Compound 229], in [1], the MIC MH 6357 was determined as 0.4 µg/mL (≈ 0.789 µM). This compound yielded an MIC MH 6374 in assay [2] of 0.4 µg/mL (≈ 0.789 µM). The same compound had an MIC MH 10720 in assay [3] not above 0.1 µg/mL. For the same compound, the MIC MH 12587 in [4] came to 0.4 µg/mL (≈ 0.789 µM). In [5], the MIC MH 13065 worked out at 0.2 µg/mL (≈ 0.394 µM). For the same compound, the MIC MH 13093 in [6] amounted to 0.4 µg/mL (≈ 0.789 µM). This compound showed an MIC PM 6267 in assay [7] not above 0.1 µg/mL. Moreover, the MIC PM 6391 in [8] is not above 0.1 µg/mL. Also, in assay [9], the MIC PM 10775 was not above 0.1 µg/mL. Also, the MIC PM 12080 in assay [10] was not above 0.1 µg/mL.

`CC(C)(O)[C@H](NC(=O)c1ccc(C#Cc2ccc(CNCc3ccccn3)cc2)cc1)C(=O)NO` [Compound 230] showed an MIC MH 6357 in assay [1] of 0.8 µg/mL (≈ 1.69 µM). This compound yielded an MIC MH 6374 in assay [2] of 0.4 µg/mL (≈ 0.846 µM). Moreover, in assay [3], the MIC MH 10720 was not above 0.1 µg/mL. In [4], the MIC MH 12587 stood at 1.6 µg/mL (≈ 3.39 µM). This compound displayed an MIC MH 13065 in [5] of 0.8 µg/mL (≈ 1.69 µM). This compound showed an MIC MH 13093 in assay [6] of 0.8 µg/mL (≈ 1.69 µM). Also, the MIC PM 6267 in [7] was not above 0.1 µg/mL. In addition, the MIC PM 6391 in [8] is not above 0.1 µg/mL. In addition, in [9], the MIC PM 10775 was not above 0.1 µg/mL. The same compound displayed an MIC PM 12080 in [10] not above 0.1 µg/mL.

Consider `CC(C)(O)[C@H](NC(=O)c1ccc(C#Cc2ccc(CNCc3ccco3)cc2)cc1)C(=O)NO` [Compound 231], for which the MIC MH 6357 in assay [1] was found to be 0.4 µg/mL (≈ 0.867 µM). This compound also registered an MIC MH 6374 in assay [2] of 0.2 µg/mL (≈ 0.433 µM). In [3], this compound had an MIC MH 10720 not above 0.1 µg/mL. In assay [4], this compound showed an MIC MH 12587 of 0.8 µg/mL (≈ 1.73 µM). In [5], this compound came in with an MIC MH 13065 of 0.2 µg/mL (≈ 0.433 µM). The compound further registered an MIC MH 13093 in assay [6] of 0.4 µg/mL (≈ 0.867 µM). The MIC PM 6267 in assay [7] was not above 0.1 µg/mL. Further, in assay [8], the MIC PM 6391 was not above 0.1 µg/mL. The compound further gave an MIC PM 10775 in [9] not above 0.1 µg/mL. In addition, the MIC PM 12080 in [10] was not above 0.1 µg/mL.

`CC(C)(O)C(NC(=O)c1ccc(C#Cc2ccc(CNCc3cccs3)cc2)cc1)C(=O)NO` (centres unmarked) [Compound 232]: the MIC MH 6357 in assay [1] came to 0.4 µg/mL (≈ 0.838 µM). Moreover, in [2], the MIC MH 6374 is not above 0.1 µg/mL. This compound showed an MIC MH 10720 in assay [3] not above 0.1 µg/mL. The same compound yielded an MIC MH 12587 in [4] of 0.4 µg/mL (≈ 0.838 µM). In assay [5], this compound came in with an MIC MH 13065 not above 0.1 µg/mL. This compound also came in with an MIC MH 13093 in [6] of 0.2 µg/mL (≈ 0.419 µM). The MIC PM 6267 in assay [7] is not above 0.1 µg/mL. The MIC PM 6391 in assay [8] was not above 0.1 µg/mL. In addition, the MIC PM 10775 in [9] is not above 0.1 µg/mL. This compound also yielded an MIC PM 12080 in assay [10] not above 0.1 µg/mL.

Compound `Cc1ccc(CNCc2ccc(C#Cc3ccc(C(=O)NC(C(=O)NO)C(C)(C)O)cc3)cc2)cc1` (centres unmarked) [Compound 233] returned an MIC MH 6357 in assay [1] of 0.8 µg/mL (≈ 1.65 µM). Further, the MIC MH 6374 in assay [2] was found to be 0.4 µg/mL (≈ 0.824 µM). Besides, the MIC MH 10720 in assay [3] is not above 0.1 µg/mL. This compound came in with an MIC MH 12587 in assay [4] of 1.6 µg/mL (≈ 3.3 µM). The same compound showed an MIC MH 13065 in assay [5] of 0.4 µg/mL (≈ 0.824 µM). The compound also yielded an MIC MH 13093 in assay [6] of 0.8 µg/mL (≈ 1.65 µM). This compound displayed an MIC PM 6267 in assay [7] not above 0.1 µg/mL. The compound further showed an MIC PM 6391 in [8] of 0.2 µg/mL (≈ 0.412 µM). For the same compound, the MIC PM 10775 in assay [9] was not above 0.1 µg/mL. For the same compound, in assay [10], the MIC PM 12080 was not above 0.1 µg/mL.

(Values after patent US11034650B2, “Compounds useful for treating a Mannheimia haemolytica or Histophilus somni infection” (Intervet Inc., priority 2016, dated 2021).)
